What all share (assay type): in vivo
The subject of experiment [1] is Alopecurus myosuroides (ALOMY). Description: Pre-emergence activity, glasshouse pot test (100=total damage to plant; 0=no damage to plant). Conditions: rate 500 g/ha, evaluated 19, 20 or 21 days after spraying. As for the experimental part: (§1) Monocotyledonous and dicotyledonous test plants were sown in standard soil in pots. After cultivation for one day (pre-emergence) or after 10 days cultivation (post-emergence) under controlled conditions in a glasshouse, the plants were sprayed with an aqueous spray solution derived from the formulation of the technical active ingredient in 0.6 ml acetone and 45 ml formulation solution containing 10.6% Emulsogen EL (Registry number 61791-12-6), 42.2% N-methyl pyrrolidone, 42.2% dipropylene glycol monomethyl ether (Registry number 34590-94-8) and 0.2% X-77 (Registry number 11097-66-8). The test plants were then grown in a greenhouse under optimum conditions until, 14 or 15 days later for post-emergence and 19, 20 or 21 days for pre-emergence, the test was evaluated (100=total damage to plant; 0=no damage to plant). Alopecurus myosuroides (ALOMY), Avena fatua (AVEFA), Lolium perenne (LOLPE), Setaria faberi (SETFA), Digitaria sanguinalis (DIGSA), Echinochloa crus-galli (ECHCG) Pre-Emergence Activity

Experiment [2] deals with Avena fatua (AVEFA). The experiment is described as above. Conditions: rate 500 g/ha, evaluated 19, 20 or 21 days after spraying. The procedure:
as §1

For experiment [3], the system named is Digitaria sanguinalis (DIGSA). Described as above. Conditions: rate 500 g/ha, evaluated 19, 20 or 21 days after spraying. The procedure: as §1
Experiment [4] deals with Echinochloa crus-galli (ECHCG). The experiment is described as above. Particulars: rate 500 g/ha, evaluated 19, 20 or 21 days after spraying. The procedure: as §1
Experiment [5] relates to Lolium perenne (LOLPE). Described as above. Particulars: rate 500 g/ha, evaluated 19, 20 or 21 days after spraying. The procedure:
as §1

The subject of experiment [6] is Setaria faberi (SETFA). The experiment is described as above. Particulars: rate 500 g/ha, evaluated 19, 20 or 21 days after spraying. The procedure:
as §1

Experiment [7] has as its system Alopecurus myosuroides (ALOMY). As to the kind of experiment: Post-emergence activity, glasshouse pot test (100=total damage to plant; 0=no damage to plant). Conditions: 336 h, evaluated 14 or 15 days after spraying; for pest or weed control at 500 g/ha: rate 500 g/ha; for pest or weed control at 125 g/ha: rate 125 g/ha. The procedure:
as §1, with “Post-Emergence” for “Pre-Emergence”

Experiment [8] has as its system Avena fatua (AVEFA). The experiment is described as above. Particulars: 336 h, evaluated 14 or 15 days after spraying; for pest or weed control at 500 g/ha: rate 500 g/ha; for pest or weed control at 125 g/ha: rate 125 g/ha. As for the experimental part: as §1, with “Post-Emergence” for “Pre-Emergence”
The subject of experiment [9] is Digitaria sanguinalis (DIGSA). The experiment is described as above. Conditions: evaluated 14 or 15 days after spraying; for pest or weed control at 500 g/ha: rate 500 g/ha; for pest or weed control at 125 g/ha: rate 125 g/ha. The procedure: as §1, with “Post-Emergence” for “Pre-Emergence”
Experiment [10] concerns Echinochloa crus-galli (ECHCG). The experiment is described as above. Particulars: evaluated 14 or 15 days after spraying; for pest or weed control at 500 g/ha: rate 500 g/ha; for pest or weed control at 125 g/ha: rate 125 g/ha. As for the experimental part: as §1, with “Post-Emergence” for “Pre-Emergence”
In experiment [11] the test system is Lolium perenne (LOLPE). The experiment is described as above. Conditions: 336 h, evaluated 14 or 15 days after spraying; for pest or weed control at 500 g/ha: rate 500 g/ha; for pest or weed control at 125 g/ha: rate 125 g/ha. The procedure:
as §1, with “Post-Emergence” for “Pre-Emergence”

The subject of experiment [12] is Setaria faberi (SETFA). Described as above. Particulars: evaluated 14 or 15 days after spraying; for pest or weed control at 500 g/ha: rate 500 g/ha; for pest or weed control at 125 g/ha: rate 125 g/ha. The procedure:
as §1, with “Post-Emergence” for “Pre-Emergence”

In the case of `CC(=O)OC1=C(c2c(C)cc(C)cc2C)C(=O)CC(C2CCOC2)C1` (stereo not drawn) [Compound P1, 3-oxo-5-(tetrahydrofuran-3-yl)-2-(2,4,6-trimethylphenyl)cyclohex-1-enyl acetate], the pest or weed control at 500 g/ha in experiment [1] worked out at 60%; in the experiment with Avena fatua (AVEFA) [2] it was 20%; in [3] it was 60%; in experiment [4], 30%; in the experiment with Lolium perenne (LOLPE) [5], 70%; in the experiment on Setaria faberi (SETFA) [6], 0%. For the same compound, the pest or weed control at 500 g/ha is 80% in [7]; 20% in the experiment on Avena fatua (AVEFA) [8]; 80% in experiment [9]; 70% in [10]; 80% in the experiment with Lolium perenne (LOLPE) [11]; 70% in the experiment with Setaria faberi (SETFA) [12].
Turning to `CCc1cc(C)cc(CC)c1C1=C(OC(C)=O)CC(C2CCCS(=O)(=O)C2)CC1=O` (stereo not drawn) [Compound P2], the pest or weed control at 500 g/ha in experiment [1] stood at 90%; with Avena fatua (AVEFA) [2], 100%; in [3], 100%; in experiment [4], 100%; in the experiment with Lolium perenne (LOLPE) [5], 80%; in the experiment on Setaria faberi (SETFA) [6], 100%. Moreover, the pest or weed control at 125 g/ha in experiment [7] was 10%; in the experiment on Avena fatua (AVEFA) [8], 20%; in experiment [9], 90%; in experiment [10], 20%; in the experiment on Lolium perenne (LOLPE) [11], 0%; in the experiment with Setaria faberi (SETFA) [12], 20%.
Take `CCc1cc(C)cc(CC)c1C1=C(OC(=O)C(C)(C)C)CC(C2CCS(=O)(=O)CC2)CC1=O` (stereo not drawn) [Compound P3]: the pest or weed control at 500 g/ha in experiment [1] was found to be 90%; in the experiment with Avena fatua (AVEFA) [2], 80%; in experiment [3], 100%; in experiment [4], 100%; in the experiment on Lolium perenne (LOLPE) [5] it was 90%; with Setaria faberi (SETFA) [6] it was 90%. Also, the pest or weed control at 125 g/ha in experiment [7] came to 70%; in the experiment with Avena fatua (AVEFA) [8], 30%; in experiment [9], 70%; in [10], 60%; in the experiment with Lolium perenne (LOLPE) [11] it was 0%; with Setaria faberi (SETFA) [12], 60%.
Regarding `CCc1cc(C)cc(CC)c1C1=C(O)CC(C2CCOCC2)CC1=O` (stereo not drawn) [Compound T2, 2-(2,6-diethyl-4-methylphenyl)-5-(tetrahydropyran-4-yl)cyclohexane-1,3-dione], the pest or weed control at 500 g/ha in [1] came to 100%; in the experiment with Avena fatua (AVEFA) [2] it was 100%; in experiment [3] it was 100%; in experiment [4] it was 90%; in the experiment on Lolium perenne (LOLPE) [5] it was 100%; with Setaria faberi (SETFA) [6], 100%. Besides, the pest or weed control at 500 g/ha in experiment [7] was 90%; in the experiment with Avena fatua (AVEFA) [8], 100%; in [9] it was 100%; in [10], 100%; in the experiment on Lolium perenne (LOLPE) [11] it was 90%; with Setaria faberi (SETFA) [12], 90%.
`Cc1cc(C)c(C2=C(O)CC(C3CCOCC3)CC2=O)c(C)c1` (stereo not drawn) [Compound T3]: the pest or weed control at 500 g/ha was determined as 90% in [1]; 90% in the experiment on Avena fatua (AVEFA) [2]; 100% in experiment [3]; 100% in experiment [4]; 100% in the experiment on Lolium perenne (LOLPE) [5]; 60% in the experiment with Setaria faberi (SETFA) [6]. Moreover, the pest or weed control at 500 g/ha in [7] came to 100%; in the experiment with Avena fatua (AVEFA) [8], 90%; in experiment [9], 80%; in [10], 100%; in the experiment with Lolium perenne (LOLPE) [11], 100%; with Setaria faberi (SETFA) [12], 90%.
Take `CCc1cc(C)cc(CC)c1C1=C(O)CC(C2CCOC2)CC1=O` (stereo not drawn) [Compound T4, 2-(2,6-diethyl-4-methylphenyl)-5-(tetrahydrofuran-3-yl)cyclohexane-1,3-dione]: the pest or weed control at 500 g/ha in experiment [1] worked out at 100%; with Avena fatua (AVEFA) [2], 70%; in experiment [3] it was 90%; in experiment [4], 100%; in the experiment on Lolium perenne (LOLPE) [5], 100%; in the experiment with Setaria faberi (SETFA) [6], 100%. Moreover, the pest or weed control at 500 g/ha in experiment [7] is 100%; in the experiment on Avena fatua (AVEFA) [8], 100%; in experiment [9] it was 100%; in experiment [10] it was 80%; in the experiment with Lolium perenne (LOLPE) [11], 100%; in the experiment on Setaria faberi (SETFA) [12], 100%.
Turning to `CCc1ccc(-c2ccc(Cl)cc2)cc1C1=C(O)CC(C2CCOC2)CC1=O` (stereo not drawn) [Compound T6], the pest or weed control at 500 g/ha in experiment [1] stood at 90%; in the experiment on Avena fatua (AVEFA) [2], 20%; in [3], 100%; in experiment [4] it was 100%; in the experiment on Lolium perenne (LOLPE) [5] it was 100%; in the experiment with Setaria faberi (SETFA) [6], 100%. For the same compound, the pest or weed control at 500 g/ha in [7] was determined as 100%; with Avena fatua (AVEFA) [8], 90%; in experiment [9], 100%; in experiment [10], 100%; in the experiment on Lolium perenne (LOLPE) [11] it was 100%; with Setaria faberi (SETFA) [12], 100%.
Take `Cc1ccc(-c2ccc(Cl)cc2)cc1C1=C(O)CC(C2CCOC2)CC1=O` (stereo not drawn) [Compound T7]: the pest or weed control at 500 g/ha in experiment [1] is 70%; in the experiment with Avena fatua (AVEFA) [2], 30%; in experiment [3] it was 100%; in experiment [4], 100%; with Lolium perenne (LOLPE) [5], 100%; in the experiment with Setaria faberi (SETFA) [6], 100%. The pest or weed control at 500 g/ha in experiment [7] was found to be 90%; with Avena fatua (AVEFA) [8], 90%; in [9], 100%; in experiment [10] it was 100%; in the experiment with Lolium perenne (LOLPE) [11], 80%; with Setaria faberi (SETFA) [12] it was 100%.
As for `CCc1ccc(-c2ccc(Cl)cc2)cc1C1=C(O)CC(C2CCOCC2)CC1=O` (stereo not drawn) [Compound T8], the pest or weed control at 500 g/ha worked out at 100% in experiment [1]; 60% in the experiment with Avena fatua (AVEFA) [2]; 100% in experiment [3]; 100% in experiment [4]; 80% with Lolium perenne (LOLPE) [5]; 100% with Setaria faberi (SETFA) [6]. The pest or weed control at 500 g/ha came to 80% in experiment [7]; 70% in the experiment with Avena fatua (AVEFA) [8]; 90% in experiment [9]; 90% in experiment [10]; 100% with Lolium perenne (LOLPE) [11]; 90% in the experiment with Setaria faberi (SETFA) [12].
With `Cc1cc(C)c(C2=C(O)CC(C3CCOC3)CC2=O)c(C)c1` (stereo not drawn) [Compound T10], the pest or weed control at 500 g/ha in [1] is 90%; in the experiment with Avena fatua (AVEFA) [2], 50%; in [3], 80%; in experiment [4], 80%; with Setaria faberi (SETFA) [6], 70%; in [7], 80%. Also, the pest or weed control at 500 g/ha stood at 60% in the experiment on Avena fatua (AVEFA) [8]; 90% in experiment [9]; 90% in [10]; 80% in the experiment with Lolium perenne (LOLPE) [11]; 80% in the experiment with Setaria faberi (SETFA) [12].
For the compound `CCc1cc(C)cc(CC)c1C1=C(O)CC(C2CC[S+]([O-])CC2)CC1=O` (stereo not drawn) [Compound T22], the pest or weed control at 500 g/ha in experiment [1] was 90%; in the experiment with Avena fatua (AVEFA) [2] it was 90%; in [4], 70%; in the experiment on Lolium perenne (LOLPE) [5], 90%; in experiment [7], 90%; in the experiment with Avena fatua (AVEFA) [8], 90%. For the same compound, the pest or weed control at 500 g/ha in experiment [9] is 100%; in [10], 80%; in the experiment with Lolium perenne (LOLPE) [11], 80%; with Setaria faberi (SETFA) [12], 100%.

As usually defined, the pest or weed control is how far the test organism was held down.

The values are drawn from patent US8536351B2, “2-aryl-5-heterocyclyl-cyclohexane-1,3,dione compounds and their use as herbicides” (Syngenta Crop Protection LLC, priority 2007, dated 2013).
